# Data published in patent publication US7629317B2, “Control of growth and repair of gastro-intestinal tissues by gastrokines and inhibitors” (The University of Chicago, priority 2001, dated 2009).
# “Also recorded” adds a separate entry of the source.
# Tests used:
# Caco2/bbe (C2) cells = test: Transepithelial electrical resistance (TER) of Caco2/bbe (C2) cell monolayers after injury; format: cell-based, human
# Description: (§1) Panel A: When a stable TER was reached (330 Ω·cm^2) in MDCK cell monolayers the medium was changed to DMEM containing FBS (0.2%), and either peptide 77-97 (8 μg/ml) or EGF (50 ng/ml). After 18 hr, peptide 77-97 or EGF were added to the specified wells. One hour later monochloramine (0.1 mM), like the other agents, was added to the apical and basal compartments of the Transwell. […] Panels B, C: Caco2/bbe (C2) subclone monolayers were grown on collagen-coated polycarbonate filters until a stable TER was reached (225 Ω·cm^2). Spent medium was replaced with fresh medium containing FBS (0.1%) alone or with peptide 77-97 (8 μg/ml). After 18 hr, monochloramine (0.3 mM, B) or indomethacin (0.1 mM, C) was added to both compartments of the Transwell. At time 0, cultures received either vehicle (control), vehicle plus oxidant or indomethacin, or peptide 77-97 and oxidant or indomethacin. TER of injured cultures treated with vehicle decreased by ˜35% at 90 min, whereas peptide-treated cultures declined ˜10%.
# C2 cell monolayers were grown in DMEM containing FBS (5%) and transferrin (10 μg/ml) on collagen-coated polycarbonate filters until a stable TER was reached (225 Ωcm^2). At time 0, cells were exposed to no DSS (control), or DSS (4%) in the upper compartment of the Transwell. AMP peptide 77-97 (8 μg/ml) was added to the upper and lower compartments of the Transwell 1 day prior to the addition of DSS at time 0. TER of DSS-injured cultures treated with vehicle decreased by ˜70% at 45 min, whereas peptide-treated cultures declined ˜10% at that time. […] Values are means for ≧6 cultures.
# Confluent C2 cell monolayers were prepared on Transwells until a stable TER was established. Medium was replaced with fresh medium containing FBS (0.1%) alone (control), or with either rhAMP-18 (100 nanomolar) or peptide 77-97 (3.7 micromolar). After 18 hr, monochloramine (0.3 mM) was added to both compartments of the Transwell, and cultures received either vehicle (control), vehicle plus oxidant, rhAMP-18 and oxidant, or peptide 77-97 and oxidant, after which TER was measured.
# To determine whether AMP peptide could speed recovery of TER after DSS-induced colonic cell injury, a highly sought-after functional characteristic of an agent designed to treat IBD, C2 cell monolayers were exposed to DSS (5%) for 10 min which reduced TER to 33±6% of the control value (FIG. 29, left panel). DSS was removed by aspirating the medium and replacing it with fresh medium. AMP peptide 77-97 (8 μg/ml) or vehicle was added to the culture medium, and TER was measured 18 hr later. In the presence of the vehicle, TER increased from 33% to 66±7% of the control value, whereas cells exposed to AMP peptide reached a value 112±4% of control.
# To determine if the cytoprotective effect of AMP peptide is mediated at the level of the actin cytoskeleton, C2 cell monolayers were exposed to cytochalasin D, an agent known to disrupt actin filaments and compromise barrier function (Madara et al., 1986).
# To determine if AMP peptide could play a cytoprotective role in GDS, a study was carried out in C2 cell monolayers that were exposed to the PA-I lectin. […] Next the effect of AMP peptide was studied in the mouse model of P. aeruginosa-induced-GDS (Laughlin et al., 2000) using female Balb/c mice subjected to 30% hepatectomy, injection of a solution of living P. aeruginosa into the cecum, and food deprivation postoperatively. All 8 of the mice survived surgery.
# MDCK cells = test: Transepithelial electrical resistance (TER) of MDCK cell monolayers; format: cell-based
# Description: Monolayer cultures of MDCK cells were grown on permeable polycarbonate filters (0.4-μm pore size) (Transell) in DMEM containing FBS (2%) without (control) or with peptide 77-97 (8 μg/ml) for 8 days. TER was measured 24 hr after the cells were plated, and at specified times thereafter using an epithelial volt-ohm meter (EVOM, Millipore). Following each measurement, medium containing FBS without or with peptide was changed (0, 48, and 144 hr), and additional peptide 77-97 (8 μg/ml) was added at 30 and 72 hr. At 72 hr, TER in cultures that received peptide 77-97 was twice as high as in control cultures. Values are means for 3 cultures; variance is <10% of the mean. TER was measured from 3 different areas on the filter.
# as §1
# [1] = system: tyrosine phosphorylation, p38 MAP kinase, hsp25, JNK1/2, ERK1/2; test: Phosphorylation of signaling proteins in IEC-18 cells (immunoblot); format: cell-based, rat
# Description: To find signaling molecules by which AMP peptide mediates its biological effects, it was asked if the peptide stimulates tyrosine phosphorylation in GI epithelial cells. IEC-18 cells were treated with AMP peptide for different periods of time, the cells were then lysed, the proteins extracted and separated on SDS-polyacrylamide gels, blotted, and the blot was probed with 4G10 anti-phosphotyrosine monoclonal antibody.
# First the effect of AMP peptide on phosphorylation of p38 MAPK in IEC-18 cells was examined. After exposure to the peptide (8 μg/ml) for up to 2 hr, the cells were lysed, the proteins were extracted, and Western blot analysis was performed using anti-phospho-specific p38 antibody. Then the membrane was stripped and reprobed with anti-p38 antibody. […] Next, to see if AMP peptide stimulated phosphorylation of hsp25, a specific anti-phospho-hsp25 antibody (Affinity BioReagents) was used to probe a blot prepared using AMP peptide-treated IEC-18 cells as above.
sequence,measurement,setting,value
"LDALVKEKKLQGKGPGGPPPK [97–117, peptide 77-97 of the mature protein, same as 97-117 of the human precursor]",TER after PA-I lectin (in words),Caco2/bbe (C2) cells; 4 hr,nearly unchanged
same,decline of TER after PA-I lectin,"Caco2/bbe (C2) cells; 4 hr, vehicle ~22%",0-5%
same,decline of TER of DSS-injured cultures,"Caco2/bbe (C2) cells; DSS 4%, 45 min, peptide 8 μg/ml 1 day prior, vehicle ~70%",~10%
same,TER 18 hr after removal of DSS,"Caco2/bbe (C2) cells; DSS 5% for 10 min, peptide 8 μg/ml, vehicle 66±7%",112±4 % of control
same,TER after cytochalasin D,"Caco2/bbe (C2) cells; cytochalasin D 0.01 μg/ml, 2 hr, peptide 8 μg/ml 18 hr pretreatment, vehicle -34%, listed as AMP peptide",did not decline significantly; also recorded: prevented the decline
same,decline of TER of injured cultures,"Caco2/bbe (C2) cells; monochloramine 0.3 mM or indomethacin 0.1 mM, 90 min, peptide 8 μg/ml, vehicle ~35%",~10%
same,decline in TER after monochloramine,"Caco2/bbe (C2) cells; monochloramine 0.3 mM, 45 min, rhAMP-18 100 nanomolar or peptide 3.7 micromolar pre-treatment, oxidant alone ~35%",~10%
same,effect on TER of non-injured cells,Caco2/bbe (C2) cells; peptide 8 μg/ml,did not alter
same,maturation of TER,MDCK cells; by 24 hr and to a greater extent thereafter,increases TER
same,TER relative to control cultures,"MDCK cells; peptide 8 μg/ml, at 72 hr",twice as high
same,phospho (P)-hsp25,[1]; 30 min,stimulated the appearance
same,activation (phosphorylation) of JNK1/2 and ERK1/2,"[1]; JNKs after 10 min, ERKs at 20 min, listed as AMP peptide",rapidly activated
same,total hsp25,[1]; after 1 hr,increase
same,total p38 MAPK,[1]; peptide 8 μg/ml,no change
same,p38 MAP kinase phosphorylation,"[1]; peptide 8 μg/ml, 30 min, listed as AMP peptide",striking increase; also recorded: increased
same,protein tyrosine phosphorylation,"[1]; peptide 8 μg/ml, two min",tyrosine phosphorylation of several proteins
